In US20230095907A1, “STIMULATION OF NEURONAL PLASTICITY” (Institute of Science and Technology Austria, priority 2019, published 2023):

Key:
[1] = molecular target: purinergic receptor P2Y12 (Mus musculus, UniProt Q9CPV9); conditions: 3×, S1
Method: Clopidogrel: Clopidogrel (Tocris 2490) was dissolved in dimethyl sulfoxide (DMSO, Sigma, D8418) and diluted 1:4 in phosphate buffer saline (PBS) before the injection.
Perineuronal net density per mm^3. In each image, neurons surrounded by perineuronal nets were counted using the spot detection function of Imaris (Oxford Instruments). The total cell count was normalised to the entire image volume and data are represented as number of cells surrounded by perineuronal nets per mm^3.
Perineuronal net density per mm^3: Each data point represents the count of neurons surrounded by PNN in one image per animal (biological replicates). For all following analyses, cell densities were calculated as a percentage with the respective control set to 100%. Linear regression was used to predict cell density per mm^3 (as absolute values or as percentages compared to the respective control) by experimental condition in cases where more than two levels were involved. Then, a two-sided T-test was then used to investigate differences between experimental conditions in cases where only two levels were involved. P-values were adjusted with the “p.adjust” function and the method set to “BH”.

perineuronal net (PNN) [2] = assay: PNN-covered cells (WFA staining) in primary somatosensory cortex after repeated KXA-anaesthesia; assay type: in vivo, C57BL/6J mice; conditions: female compared with male
Method: (§1) C57BL/6J mice were intraperitoneal (i.p.) injected in the morning. Deep anaesthesia was confirmed based on the following parameters: • 1. Absence of the toe pinch reflex around 10 minutes after induction. • 2. Decrease in the respiratory frequency. • 3. No responses to external stimuli. • 4. Flaccid paralysis. • 5. Absence of whiskers movement.
(§2) Solution was always freshly prepared to avoid pH fluctuations.
(§3) For histological analysis, animals were shortly anesthetized with isoflurane (Zoetis) and secured to the perfusion plate. The chest was open to expose the hearth. […] The animals were initially perfused with 20 mL of phosphate-buffered saline (PBS) with heparin (100 mg/L, Sigma H0878), followed by 20 mL of 4% (w/v) paraformaldehyde (PFA, Sigma P6148) in PBS using a peristaltic pump (Behr PLP 380, speed: 25 rpm). The animals were decapitated, the retina and brain explanted, and post-fixed in 4% (w/v) PFA/PBS for 30 minutes and overnight (16h), respectively. […]
(§4) Perineuronal net density per mm^3. In each image, neurons surrounded by perineuronal nets were counted using the spot detection function of Imaris (Oxford Instruments). […]
(§5) Perineuronal net density per mm^3: Each data point represents the count of neurons surrounded by PNN in one image per animal (biological replicates). For all following analyses, cell densities were calculated as a percentage with the respective control set to 100%. […]

perineuronal net (PNN) [3] = assay: PNN-covered cells (WFA staining) in primary visual cortex (V1); assay type: in vivo, C57BL/6J mice; conditions: female compared with male
Method: as §1, §2, §3, §4, §5

[4] = test system: parvalbumin-positive neurons, microglia, astrocytes; assay: Cell density, apoptosis and astrogliosis in S1 (parvalbumin, Iba1, Caspase3, GFAP immunostaining)
Method: For histological analysis, animals were shortly anesthetized with isoflurane (Zoetis) and secured to the perfusion plate. The chest was open to expose the hearth. […] The animals were initially perfused with 20 mL of phosphate-buffered saline (PBS) with heparin (100 mg/L, Sigma H0878), followed by 20 mL of 4% (w/v) paraformaldehyde (PFA, Sigma P6148) in PBS using a peristaltic pump (Behr PLP 380, speed: 25 rpm). The animals were decapitated, the retina and brain explanted, and post-fixed in 4% (w/v) PFA/PBS for 30 minutes and overnight (16h), respectively. Then, the tissues were washed in PBS and stored at 4° C. with 0.025% (w/v) sodium azide (VWR 786-299). For cryoprotection, the tissue was transferred in 30% (w/v) sucrose (Sigma 84097) in PBS and incubated overnight at 4° C. To increase antibody permeability, the brain slices were frozen over dry-ice and thawed at room temperature for three cycles.
P-values were adjusted with the “p.adjust” function and the method set to “BH”.

[5] = test system: gamma oscillations in the brain; assay: Power spectrum analysis of brain oscillations after repeated ketamine exposure; assay type: in vivo
[6] = ketamine; cited from earlier work

Chain of purinergic receptor P2Y12 (Q9CPV9 whole entry): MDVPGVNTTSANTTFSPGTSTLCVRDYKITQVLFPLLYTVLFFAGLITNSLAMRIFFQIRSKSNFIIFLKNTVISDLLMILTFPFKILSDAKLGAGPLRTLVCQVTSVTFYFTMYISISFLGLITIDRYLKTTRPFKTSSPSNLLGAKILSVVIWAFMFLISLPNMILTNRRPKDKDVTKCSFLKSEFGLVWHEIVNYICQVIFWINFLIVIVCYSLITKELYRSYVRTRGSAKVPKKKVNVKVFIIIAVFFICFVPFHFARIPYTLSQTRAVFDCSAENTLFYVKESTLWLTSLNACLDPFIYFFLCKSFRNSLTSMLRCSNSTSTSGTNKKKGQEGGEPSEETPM

| Compound | loss of PNN-covered cells ([1]; 50 mg/Kg clopidogrel i.p. 5 minutes before KXA) | microglia interaction with the PNN structure ([1]; clopidogrel i.p. 5 minutes before KXA) | sex difference in the action (PNN loss) of repeated exposure (perineuronal net (PNN) [2]) | sex difference in PNN recovery rate (perineuronal net (PNN) [3]) | apoptosis ([4]; repeated ketamine exposure) | parvalbumin-positive neuron density ([4]; repeated ketamine exposure) | astrogliosis (GFAP) ([4]; repeated ketamine exposure (6×KXA)) | 60 Hz frequency gamma oscillations in the brain [5] | half-life [6] |
| --- | --- | --- | --- | --- | --- | --- | --- | --- | --- |
| COC(=O)[C@H](c1ccccc1Cl)N1CCc2sccc2C1 [clopidogrel] | prevented ketamine-mediated loss of PNN-covered cells | microglia showed less interaction with the PNN structure | – | – | – | – | – | – | – |
| CNC1(c2ccccc2Cl)CCCCC1=O (stereo not drawn) [ketamine, 2-(2-chlorophenyl)-2-(methylamino)cyclohexan-1-one] | – | – | accelerated in females | recovery rate was similar | does not induce apoptosis | does not induce apoptosis or alteration in parvalbumin-positive neuron density | nor induce astrogliosis | increase in 60 Hz frequency gamma oscillations | 2 h |
